In patent US8309557B2, “Pyrimidin-4-ylpropanedinitrile derivatives, processes for their preparation and their use as herbicides and plant growth regulators” (Bayer Intellectual Property GmbH, priority 2009, dated 2012):

Assays:
Assay type in all cases: in vivo
Matricaria inodora = assay: Herbicidal effect post-emergence, MATIN
Description: (§1) Seeds of mono- and dicotyledonous weed plants and crop plants are planted in wood-fiber pots in sandy loam, covered with earth and grown in a greenhouse under good growth conditions. 2 to 3 weeks after sowing, the test plants are treated in the single-leaf stage. The compounds according to the invention, formulated in the form of wettable powders (WP) or as emulsion concentrates (EC), are then sprayed onto the green plant parts as aqueous suspension or emulsion using an application rate of 600 to 800 l of water/ha (converted) with the addition of 0.2% by weight of wetting agent. After the test plants had been in the greenhouse for ca. 3 weeks under optimum growth conditions, the effect of the preparations is scored visually in comparison with untreated controls (herbicidal effect in percent (%): 100% effect=plants have died off, 0% effect=as control plants).

Abutilon theophrasti = assay: Herbicidal effect post-emergence, ABUTH
Description: as §1

Echinochloa crus-galli = assay: Herbicidal effect post-emergence, ECHCG
Description: as §1

Amaranthus retroflexus [1] = assay: Herbicidal effect post-emergence, AMARE
Description: as §1

Veronica persica [2] = assay: Herbicidal effect post-emergence, VERPE
Description: as §1

Viola tricolor [3] = assay: Herbicidal effect pre-emergence, VIOTR; conditions: 320 g/hectare, visual grading after 3 weeks vs untreated controls
Source text: (§2) Seeds of mono- and dicotyledonous weed plants and crop plants are planted in wood-fiber pots in sandy loam and covered with earth. The compounds according to the invention, formulated in the form of wettable powders (WP) or as emulsion concentrates (EC), are then applied to the surface of the covering earth as aqueous suspension or emulsion at an application rate corresponding to 320 g/hectare at an application rate of 600 to 800 l of water/ha (converted) with the addition of 0.2% wetting agent.
(§3) Following treatment, the pots are placed in a greenhouse and kept under good growth conditions for the test plants. The visual grading of the damage to the test plants is carried out after a test time of 3 weeks in comparison to untreated controls (herbicidal effect in percent (%): 100% effect=plants have died off, 0% effect=as control plants).

Amaranthus retroflexus [4] = assay: Herbicidal effect pre-emergence, AMARE; conditions: 320 g/hectare, visual grading after 3 weeks vs untreated controls
Source text: as §2, §3

Stellaria media = assay: Herbicidal effect post-emergence, STEME
Description: as §1

[5] = test system: Polygonum (Fallopia) convolvulus; assay: Herbicidal effect post-emergence, POLCO
Description: as §1

Veronica persica [6] = assay: Herbicidal effect pre-emergence, VERPE; conditions: 320 g/hectare, visual grading after 3 weeks vs untreated controls
Source text: as §2, §3

Viola tricolor [7] = assay: Herbicidal effect post-emergence, VIOTR
Description: as §1

Setaria viridis = assay: Herbicidal effect post-emergence, SETVI
Description: as §1

[8] = 0.32 kg and less of active substance per hectare, visual score after ca. 3 weeks vs untreated controls

| Compound | Effect in % in respect of stated plant, MATIN (Matricaria inodora) | Effect in % in respect of stated plant, ABUTH (Abutilon theophrasti) | Effect in % in respect of stated plant, AMARE (Amaranthus retroflexus [1]) | Effect in % in respect of stated plant, VERPE (Veronica persica [2]) | Effect in % in respect of stated plant, POLCO [5] | Effect in % in respect of stated plant, VERPE (Veronica persica [6]) | also measured |
| --- | --- | --- | --- | --- | --- | --- | --- |
| CN.N#CC(C#N)c1nc(-c2ccc(Cl)cc2)nc(N)c1Cl [Compound 309] | 85% | 90% | 95% | 90% | 90% | 100% | Effect in % in respect of stated plant, ECHCG (Echinochloa crus-galli): 90%; Effect in % in respect of stated plant, VIOTR (Viola tricolor [3]): 100%; Effect in % in respect of stated plant, AMARE (Amaranthus retroflexus [4]): 85%; Effect in % in respect of stated plant, STEME (Stellaria media): 80%; Effect in % in respect of stated plant, VIOTR (Viola tricolor [7]): 85%; Effect in % in respect of stated plant, SETVI (Setaria viridis): 80% |
| N.N#CC(C#N)c1nc(-c2ccc(F)cc2F)nc(N)c1Cl [Compound 383] | 90% | 80% | 90% | 90% | 100% | – | – |
| N#CC(C#N)c1nc(-c2ccc(Cl)cc2)nc(N)c1Cl [Ex. No. 29, [6-Amino-5-chloro-2-(4-chlorophenyl)pyrimidin-4-yl]propanedinitrile] | – | 80% | – | 90% | – | 100% | Effect in % in respect of stated plant, VIOTR (Viola tricolor [3]): 80%; Effect in % in respect of stated plant, VIOTR (Viola tricolor [7]): 80% |
| N.N#CC(C#N)c1nc(-c2ccc(Cl)cc2Cl)nc(N)c1Cl [Compound 375] | 90% | 90% | 100% | 90% | 100% | 100% | Effect in % in respect of stated plant, VIOTR (Viola tricolor [3]): 80%; Effect in % in respect of stated plant, AMARE (Amaranthus retroflexus [4]): 100% |
| N.N#CC(C#N)c1nc(-c2ccc(Cl)cc2)nc(N)c1Br [Compound 313] | 90% | 80% | 100% | 100% | – | – | Effect in % in respect of stated plant, STEME (Stellaria media): 90%; Effect in % in respect of stated plant, VIOTR (Viola tricolor [7]): 80% |
| Cc1cc(-c2nc(N)c(Cl)c(C(C#N)C#N)n2)ccc1F.N [Compound 389] | – | 80% | 80% | 80% | 80% | – | – |
| N#C[C-](C#N)c1nc(-c2ccc(Cl)c(Cl)c2)nc(N)c1Cl.[Na+] [Compound 340] | 90% | 80% | 90% | 90% | 90% | – | – |
| N.N#CC(C#N)c1nc(-c2cccc(Cl)c2Cl)nc(N)c1Cl [Compound 390] | – | – | 90% | 80% | 80% | – | – |
| N#CC(C#N)c1nc(-c2ccc(F)cc2F)nc(N)c1Cl [compound 201] | 80% | – | 90% | 90% | 90% | – | – |
| Cc1ccc(-c2nc(N)c(Cl)c(C(C#N)C#N)n2)c(F)c1.N [Compound 391] | – | – | – | – | 80% | – | – |
| N#CC(C#N)c1nc(-c2ccc(Cl)c(Cl)c2)nc(N)c1Cl [compound 104] | 90% | 80% | 90% | 90% | 80% | – | Effect in % in respect of stated plant, ECHCG (Echinochloa crus-galli): 80%; Effect in % in respect of stated plant, VIOTR (Viola tricolor [7]): 80%; Effect in % in respect of stated plant, SETVI (Setaria viridis): 80% |
| N#CC(C#N)c1nc(-c2cc(F)c(Cl)c(F)c2)nc(N)c1Cl [compound 210] | – | – | 90% | 80% | – | 80% | Effect in % in respect of stated plant, VIOTR (Viola tricolor [3]): 100% |
| N#CC(C#N)c1nc(-c2ccc(Cl)c(C(F)(F)F)c2)nc(N)c1Cl [compound 87] | 90% | – | – | 90% | – | – | – |
| N#CC(C#N)c1nc(-c2ccc(Cl)cc2Cl)nc(N)c1Cl [compound 186] | 90% | 100% | 100% | 90% | 100% | 100% | Effect in % in respect of stated plant, AMARE (Amaranthus retroflexus [4]): 90%; Effect in % in respect of stated plant, STEME (Stellaria media): 90%; Effect in % in respect of stated plant, VIOTR (Viola tricolor [7]): 80% |
| Cc1ccc(-c2nc(N)c(Cl)c(C(C#N)C#N)n2)cc1F.N [Compound 385] | 80% | 80% | 100% | – | 80% | – | – |
| Cc1ccc(-c2nc(N)c(Cl)c(C(C#N)C#N)n2)cc1F [compound 204] | 80% | 90% | 90% | 80% | 80% | – | Effect in % in respect of stated plant, ECHCG (Echinochloa crus-galli): 80% |
| N#CC(C#N)c1nc(C2CCCCC2)nc(N)c1Cl [compound 240] | 80% | 80% | – | 90% | – | – | – |
| N.N#CC(C#N)c1nc(-c2ccc(F)cc2)nc(N)c1Cl [Compound 300] | 80% | – | 80% | 80% | – | – | – |
| N#CC(C#N)c1nc(-c2ccccc2)nc(N)c1Cl [Ex. No. 1, [6-Amino-5-chloro-2-phenylpyrimidin-4-yl]propanedinitrile] | – | – | – | – | – | – | herbicidal effect (Matricaria inodora; [8]): at least 80%; herbicidal effect (Veronica persica [2]; [8]): at least 80%; herbicidal effect [5, 8]: at least 80% |
| N#CC(C#N)c1nc(-c2cc(F)ccc2N)nc(N)c1Cl [compound 203] | – | – | – | – | – | 90% | Effect in % in respect of stated plant, AMARE (Amaranthus retroflexus [4]): 100% |
| Cc1cc(-c2nc(N)c(Cl)c(C(C#N)C#N)n2)ccc1F [compound 205] | – | – | – | – | – | 100% | Effect in % in respect of stated plant, VIOTR (Viola tricolor [3]): 100% |
| N#CC(C#N)c1nc(-c2cccc(Cl)c2Cl)nc(N)c1Cl [compound 207] | 80% | 80% | 100% | 90% | 100% | – | Effect in % in respect of stated plant, STEME (Stellaria media): 80% |
| N#CC(C#N)c1nc(-c2ccc(C(F)(F)F)cc2)nc(N)c1Cl [compound 45] | 80% | – | – | 90% | 80% | – | Effect in % in respect of stated plant, VIOTR (Viola tricolor [7]): 80%; Effect in % in respect of stated plant, SETVI (Setaria viridis): 80% |
